Consider one molecule from US5962456A, “N-acylpiperazine derivative, anti-ulcer drug, and antibacterial drug” (Shiseido Co., Ltd., priority 1996, dated 1999).

Data set [1] deals with isolated gastric fundic gland. Briefly: CAP: Acid Secretion Inhibition Test In Vitro ([14C]-aminopyrine uptake). The format is cell-based, rabbit (male Japanese White). The note with it: Oryctolagus cuniculus; final concentration 10^-5 M; histamine 10^-5 M; rabbit gastric fundic glands; read-out: CAP acid secretion inhibitory rate. On the procedure:
CAP: Acid Secretion Inhibition Test In Vitro
The acid secretion inhibitory activity in a cell level is studied. It can also be used for studying the mechanism of the effect. […]
ii-a) Preparation of Isolated Gastric Fundus Gland Suspension
First, an isolated gastric fundic gland sample was prepared. Namely, a male Japanese White rabbit (2.5 to 3 kg) was anesthetized to death with Nembutal™ and then the abdomen was incised. Immediately thereafter, the stomach was removed and, after its pyloric and cardiac antrum were severed, incised along its greater curvature into two sheets. The gastric contents adhering to the mucosal surface was washed out with ice-cooled PBS (-) and then carefully washed therein. The gastric wall was spread on a cork board with its mucosal surface facing up and the feed and mucus thereon were completely removed with sterile gauze. The mucosa was separated therefrom by a spatula and then collected in ice-cooled PBS (-). After being washed twice with PBS (-), the mucosa was minced into 2-3 mm^3 pieces by scissors. These pieces were further washed twice with a nutrient solution. […] Into 70 ml of the nutrient solution containing 1 mg/ml of collagenase, minced mucosal pieces were dispersed and intensely stirred in a conical flask with a stirrer at 37° C. for 40 to 60 minutes. During this period, 100% O2 was sprayed on the nutrient solution surface and the pH was appropriately measured such that it was immediately adjusted to pH 7.4, when the value was therebelow, with a base. The nutrient solution was added to the reaction solution so as to attain the total amount of about 200 ml. After being filtered through a mesh, the suspension was divisionally introduced into 50 ml centrifuge tubes and left for 15 minutes such that gastric fundic gland was deposited. The supernatant was repeatedly removed by an aspirator, dispersed in the nutrient solution, and then left such that the gastric fundic gland was washed three times. At this time, without using a pipette, the suspension was alternately introduced into two centrifuge tubes so as to effect dispersion. The number of cells was counted under microscope and adjusted to 1.6×10^6 cells/ml. […]
ii-b) [^14 C]-aminopyrine Uptake Test
Then, [^14 C]-aminopyrine uptake test was performed. After an Eppendorf tube was weighed, 10 μl (final concentration: 10^-5 M) of histamine dissolved in the above-mentioned nutrient solution, 10 μl (final concentration: 10^-5 M) of the test compound dissolved in DMSO, and 10 μl (final concentration: 0.05 μCi/ml) of [^14 C]-aminopyrine diluted with the nutrient solution were introduced therein and then 970 μl of the isolated gastric fundic gland suspension prepared above was added thereto. […] After being centrifuged for 30 minutes, 200 μl of its supernatant was collected into a mini-vial, while the rest was removed by an aspirator. The gland pellet was completely dried as the tube with its lid being opened was kept for one night in a drying oven at 80° C. and then the lid was closed and the weight was determined at room temperature. Then 100 μl of 1N KOH was added thereto and the tube with its lid being closed was treated at 60° C. for 1 to 2 hours so as to dissolve the pellet. Then, the contents thereof were transferred to a mini-vial. Into the mini-vial containing the supernatant or gland pellet, 4 ml of Atomlite™ was added and then the radioactivity was measured by a liquid scintillation counter. Here, after the radioactivity of the gland pellet was corrected by using a sample in which 20 mM of NaSCN was added so as to cancel the hydrogen ion concentration gradient, the integration ratio of aminopyrine specifically trapped by the gland pellet was calculated. This experiment was performed in duplicate. […]
ii-c) Calculation of the Accumulation Rate of Aminopyrine
Here, its principle will be briefly explained. In the isolated gastric fundic gland, acid is accumulated in a space between its secretory tubule and intraglandular cavity.

The nature of data set [2]: MTT: Cell Damaging and Protecting Effect Test. The note with it: rabbit, gastric corpus mucosa cells, final concentration 10^-4 M, smaller value is better, read-out: MTT cell damaging rate. The format is cell-based, rabbit (male Japanese White). The text has this:
MTT: Cell Damaging and Protecting Effect Test
It is confirmed that there is no toxicity in cell level. Those having a toxicity in cell level are inappropriate as an anti-ulcer drug.
A male Japanese White rabbit (2.5 to 3 kg) was anesthetized to death by Nembutal™ and, immediately thereafter, its stomach was removed. The greater curvature of the stomach was incised so as to remove the stomach contents therefrom. After the mucosal surface was washed with HBSS (Hanks' Balanced Salt Solution), the stomach in ice-cooled HBSS was transferred to a laboratory. Then, after the pyloric antrum was removed, the gastric corpus mucosa was separated by a spatula and then minced into 2 to 3 mm^3 pieces in BME (Basal Medium Eagle). Thereafter, these pieces were shaken at 120 to 130 cycles/minute for 15 minutes at 37° C. in BME 60 ml containing 280 U/ml of dispase and 30 to 50 U/ml of collagenase. Here, the concentration of collagenase was appropriately changed for each lot in view of the state of cells. The pieces were washed twice with EBSS (Earle's Balanced Salt Solution) containing 1 mM of EDTA and then shaken in MEM (Minimum Essential Medium) containing 1 mM of EDTA at 37° C. for 5 minutes. Subsequently, they were shaken in the dispase and collagenase having the same concentrations as those mentioned above for 15 minutes so as to remove the supernatant and then further shaken at 37° C. for 50 to 60 minutes at 120 to 130 cycles/minute. Then, after being washed twice with HBSS, Ham F12 containing 2% of Ultrocer G™ was used to attain the concentration of 1×10^6 cells/ml. Thus formed suspension was dispensed in each well of a 96-well plate by 200 μl. The plate was incubated in the atmosphere composed of 5% CO2 and 95% air at 37° C. for three days so as to attain a confluent state and then subjected to MTT assay.
The sample compound was dissolved in DMSO so as to attain a concentration of 10^-2 M and then diluted with HBSS containing 2% of Ultrocer G™ so as to attain a final concentration of 10^-4 M. To each group, which 8 wells were used for, 10 μl of MTT reagent was added immediately after 100 μl of the medium in each well was exchanged for same volume of the resulting solution of the sample compound. After being incubated in an atmosphere composed of 5% CO2 and 95% air at 37° C. for 4 hours, thus formed solution was centrifuged and then its supernatant was discarded. Subsequently, 100 μl of 100% ethanol was added to the residue so as to dissolve MTT formazan. Then, the absorbance (OD: 570 to 630) was measured by a microplate reader. This method utilizes a phenomenon in which MTT is changed to MTT formazan only by mitochondria of living cells so as to change color.
The cell damaging or cell protecting effect of the sample compound at the final concentration of 10^-4 M was expressed as cell damaging rate (%) as follows:
cell damaging rate (%)=(1-(absorbance in sample group/absorbance in control group))×100
Accordingly, the smaller rate value is better in the cell damage.

In data set [3] the test system is mice. The note with it: mouse, in vivo.
Description: AT: Single Dose Toxicity Pretest
Male Slc:ICR mice (5-week-old) were used. Each group has 3 to 5 mice and each mouse was fasted, but allowed free access to water, for 4 to 5 hours from 9 a.m. in the test day. Then, 2,000 mg/10 ml/kg of the sample compound dissolved or suspended in an aqueous solution of 0.5% sodium carboxymethyl cellulose was orally administered thereto. To a control, only the vehicle was administered. […] The body weight was measured before and after the fasting as well as at the same time everyday. The dead animals were immediately subjected to autopsy and their organs were observed microscopically. Also, the living animals were sacrificed with ether or carbon dioxide one week after the administration and then their organs were observed microscopically.
The toxicity at the single dose of 2,000 mg/kg of the sample compound was expressed as being classified into 5 levels.
5: Mortality rate is 0%; no toxicity is found at all both in behavior and organs.
4: Mortality rate is 0%; while no toxicity is found in organs, slight toxicity is observed in behavior and body weight increase.
3: While there is a dead animal (though not all the animals are dead), no toxicity is found in organs.
2: Regardless of whether there is a dead animal or not, toxicity is found in organs.
1: All the animals are dead.

Turning to `CC(C)Cc1cc(C(=O)N2CCN(c3ccccn3)CC2)ccc1OCc1ccc(F)cc1` [Example 10, 1-[4-(4-fluorobenzyloxy)-3-isobutyl]benzoyl-4-(2-pyridyl) piperazine], the inhibition at 10 µM in data set [1] stood at 96%. Besides, the cytotoxicity at 4 h, 100 µM in data set [2] is -34%. Also, the “AT single dose toxicity level” value in data set [3] is listed as 5.
